Experimental data published in patent US6395785B1 (Orion Corporation, priority 1998, dated 2002).
Read-outs that look alike come from different tables or passages of the source.

Key:
[1] = test system: uterine weight in ovarectomized adult female Sprague-Dawley rats; assay: Uterine weight in ovarectomized adult female rats; type: in vivo; conditions: for Relative uterine weight (control level taken as 1.00): ovarectomized rats
Experimental: (§2) The effects on uterine weight and on serum cholesterol levels were studied in intact and ovarectomized adult female Sprague-Dawley rats. […] In the ovarectomy study the study drug was given p.o. at a daily dose of 0.1, 1 or 10 mg/kg for 4 weeks and comparison was made with the corresponding Z-isomer and estradiol (100 μg/kg). The serum cholesterol content was determined by an enzymatic method. In the ovarectomy study the serum cholesterol and cholesterol precursor molecule content was determined by gas-liquid chromatography.

[2] = test system: serum cholesterol precursor molecule; conditions: ovarectomy study
Experimental: as §2

serum cholesterol [3] = conditions: for Serum cholesterol content (control level taken as 1.00): ovarectomized rats; for Decrease of serum cholesterol level (maximum): ovarectomy study, over the doses tested
Experimental: as §2

serum cholesterol [4] = assay: Serum cholesterol in intact adult female rats; conditions: for Serum cholesterol content (control level taken as 1.00; mean ± SD, n = 3): intact rats, p.o. 3.17 mg/kg daily or equimolar dose, two weeks
Experimental: as §2

Hep G2 cell cultures = conditions: for Cholesterol biosynthesis level (% of control): 2 hours, Hep G2; for Effect on cholesterol biosynthesis (in words): in vitro cell culture system, 0.01 to 10 micromolar
Experimental: The effects on cholesterol biosynthesis was studied in vitro in Hep G2 cell cultures using ^14C-acetate as cholesterol precursor. The test compound was added into the culture medium at concentrations from 0.01 to 10 micromolar. After 2 hours the culture was stopped and the newly synthesized cholesterol was quantitated by thin-layer chromatography. Comparison was made with the Z-isomer.

[5] = test system: estrogen-induced increase in uterine weight
Experimental: (§1) The estrogenic/antiestrogenic activity of the study drug was tested by measuring the effect on the uterine weight in immature (18 days old) female Sprague-Dawley rats. The compound was given p.o. in a PEG-solution for 3 days (n=5/group). At the same time the ability of the study drug to inhibit estrogen-induced increase in uterine weight was studied in rats given estradiol 50 μg/kg s.c. Comparison was made with the corresponding Z-isomer.

[6] = test system: uterine weight in immature female Sprague-Dawley rats; conditions: for Average uterine weight (weight after mere E2-treatment was taken as 1.00): drug alone
Experimental: as §1

[7] = test system: uterine weight in intact adult female Sprague-Dawley rats; assay: Uterine weight in intact adult female rats; conditions: p.o. 3.17 mg/kg daily or equimolar dose, two weeks
Experimental: as §2

[8] = 0.1 mg/kg p.o. for 3 days + E2 (estradiol 50 μg/kg s.c.)
[9] = 0.5 mg/kg p.o. for 3 days + E2 (estradiol 50 μg/kg s.c.)
[10] = 1 mg/kg p.o. for 3 days + E2 (estradiol 50 μg/kg s.c.)
[11] = 10 mg/kg p.o. for 3 days + E2 (estradiol 50 μg/kg s.c.)

SMILES | Relative uterine weight (control level taken as 1.00) ([1]; 0.1 mg/kg p.o. daily, 4 weeks) | Relative uterine weight (control level taken as 1.00) ([1]; 1 mg/kg p.o. daily, 4 weeks) | Relative uterine weight (control level taken as 1.00) ([1]; 10 mg/kg p.o. daily, 4 weeks) | Effect on serum cholesterol precursor molecule level (in words) [2] | Serum cholesterol content (control level taken as 1.00) (serum cholesterol [3]; 1 mg/kg p.o. daily, 4 weeks) | Serum cholesterol content (control level taken as 1.00) (serum cholesterol [3]; 10 mg/kg p.o. daily, 4 weeks) | Decrease of serum cholesterol level (maximum) (serum cholesterol [3]) | Serum cholesterol content (control level taken as 1.00; mean ± SD, n = 3) (serum cholesterol [4]) | Cholesterol biosynthesis level (% of control) (Hep G2 cell cultures; 0.01 μM) | Cholesterol biosynthesis level (% of control) (Hep G2 cell cultures; 0.1 μM) | Cholesterol biosynthesis level (% of control) (Hep G2 cell cultures; 1 μM) | Cholesterol biosynthesis level (% of control) (Hep G2 cell cultures; 10 μM) | Effect on cholesterol biosynthesis (in words) (Hep G2 cell cultures) | Average uterine weight (weight after mere E2-treatment was taken as 1.00) [5, 8] | Average uterine weight (weight after mere E2-treatment was taken as 1.00) [5, 9] | Average uterine weight (weight after mere E2-treatment was taken as 1.00) [5, 10] | Average uterine weight (weight after mere E2-treatment was taken as 1.00) [5, 11] | Average uterine weight (weight after mere E2-treatment was taken as 1.00) ([6]; 0.1 mg/kg p.o. for 3 days) | Average uterine weight (weight after mere E2-treatment was taken as 1.00) ([6]; 0.5 mg/kg p.o. for 3 days) | Relative uterine weight (control level taken as 1.00; mean ± SD, n = 3) [7] | also measured
OCCOc1ccc(/C(=C(/CCCl)c2ccccc2)c2ccccc2)cc1 [1271a (Z), Z-2-[4-(4-chloro-1,2-diphenyl-but-1-enyl)phenoxy]ethanol] | 1.22 | 1.78 | 2.04 | not | 0.96 | 0.66 | up to 34% | 0.65 ± 0.10 | 143 % of control | 127 % of control | 129 % of control | 132 % of control | had an opposite effect | 1.18 | 1.11 | 0.91 | 0.91 | 0.27 | 0.43 | 0.75 ± 0.06 | Serum cholesterol content (control level taken as 1.00) (serum cholesterol [3]; 0.5 mg/kg): 0.90; Serum cholesterol content (control level taken as 1.00) (serum cholesterol [3]; 5 mg/kg): 0.89; Efficacy in decreasing serum cholesterol level (in words) (serum cholesterol [4]; intact adult female rats, compared with the other drugs): less effective; Average uterine weight (weight after mere E2-treatment was taken as 1.00) ([6]; 1 mg/kg p.o. for 3 days): 0.53; Average uterine weight (weight after mere E2-treatment was taken as 1.00) ([6]; 10 mg/kg p.o. for 3 days): 0.75
OCCOc1ccc(/C(=C(\CCCl)c2ccccc2)c2ccccc2)cc1 [1271b (E), E-2-[4-(4-chloro-1,2-diphenyl-but-1-enyl)phenoxy]ethanol] | 1.54 | 1.50 | 1.53 | increased slightly | 0.62 | 0.23 | up to 77% | 0.43 ± 0.05 | 89 % of control | 90 % of control | 89 % of control | 84 % of control | inhibited slightly cholesterol biosynthesis | 0.81 | 0.82 | 0.57 | 0.83 | 0.37 | 0.45 | 0.85 ± 0.07 | Increase of relative uterus weight ([1]; ovarectomy study, 0.1, 1 or 10 mg/kg p.o., 4 weeks): 1.5 fold; Serum cholesterol content (control level taken as 1.00) (serum cholesterol [3]; 0.1 mg/kg p.o. daily, 4 weeks): 0.92; Average uterine weight (weight after mere E2-treatment was taken as 1.00) ([6]; 1 mg/kg p.o. for 3 days): 0.44; Average uterine weight (weight after mere E2-treatment was taken as 1.00) ([6]; 10 mg/kg p.o. for 3 days): 0.75; Estrogenic and antiestrogenic effect compared to the corresponding Z-isomer (in words) ([6]; immature rat uterine weight test): approximately equal estrogenic and antiestrogenic effect
C[C@]12CC[C@@H]3c4ccc(O)cc4CC[C@H]3[C@@H]1CC[C@@H]2O [Estradiol] | – | – | – | – | – | – | – | 0.48 ± 0.09 | – | – | – | – | – | – | – | – | – | – | – | 1.29 ± 0.06 | Increase of relative uterus weight ([1]; ovarectomy study, estradiol 100 μg/kg): 3.3 fold
O=C(c1ccc(OCCN2CCCCC2)cc1)c1c(-c2ccc(O)cc2)sc2cc(O)ccc12 [Raloxifene] | – | – | – | – | – | – | – | 0.48 ± 0.09 | – | – | – | – | – | – | – | – | – | – | – | 0.77 ± 0.21 | –
CN(C)CCOc1ccc(/C(=C(/CCCl)c2ccccc2)c2ccccc2)cc1 [Toremifene (E)] | – | – | – | – | – | – | – | 0.40 ± 0.18 | – | – | – | – | – | – | – | – | – | – | – | 1.09 ± 0.10 | –
